From US7662857B2, “Diagnostic agents for pancreatic exocrine function” (Tokyo Gas Company Limited, priority 2001, dated 2010)
Each block holds one compound with its values, some of them ahead of it.

Tests used:
[1] = system: pancreatic exocrine function; assay: 13C-dipeptide breath test in normal rats (Δ13C in exhaled CO2 after oral administration); assay type: in vivo, rat; conditions: for Δ^13C(‰) peak value / Peak time: oral 35 μmol/kg (5 ml/kg); for Δ^13C(‰) peak value: exhaled CO2; for Δ^13C(‰) value at 5 min after the administration / Δ^13C(‰) value at 10 min after the administration / Δ^13C(‰) value at 15 min after the administration / Δ^13C(‰) value at 20 min after the administration: normal rats, mean±SD; for Δ^13C(‰) peak value compared with the peak value of Bz-Ala-(^13C-Ala)-ONa: comparison in words
Experimental: (§1) Overnight-fasted rats (male, Wistar, 8-week old) in the awake state were individually fixed in a rat holder of a microwave irradiation apparatus. The breath was collected at a rate of about 100 to 300 ml/min using a stroke pump (Variable Stroke Pump VS-500; Shibata Kagaku Kogyo), and the CO2 concentration therein was maintained at about 3%. A Perma Pure drier (MD-050-12P; Perma Pure INC.) was set between the rat holder and the stroke pump to remove water vapor from the breath. When the CO2 concentration was stabilized, the rat was temporarily released from the rat holder. A ^13C-labeled dipeptide or a sodium salt thereof each dissolved in distilled water was administered to the stomach of the rat using an oral probe [dose: 35 μmol/kg (5 ml/kg)]. The breath was sampled with a syringe every 5 min until up to 20 min. A 15 ml sample was transferred from the syringe into a vacuum vial (10 ml), sealed and subjected to automated analysis by GC-MS (Breath MAT) [FinniganMAT]. Δ^13C(‰) was calculated from δ^13C values which are ^13C values of a sample (i.e. differences from the standard substance PDB) using the following formula. Δ^13C(‰)=(δ^13C)tmin−((δ^13C)0 min <Breath MAT Measuring Conditions>
Apparatus: Breath MAT plus (Finningan)
Using Ac-Met-(^13C-Ala)-ONa, Z-Met-(^13C-Ala)-ONa, Boc-Met-(^13C-Ala)-ONa or Boc-Phe-(^13C-Ala)-ONa [dose: 35 μmol/kg (5 ml/kg)], ^13C-breath tests were carried out in the same manner as in Example 12. The resultant Δ^13C(‰) peak values were compared with the Δ^13C(‰) peak value in the Bz-Ala-(^13C-Ala)-ONa breath test.
(§2) As in Example 12, Bz-Phe-(^13C-Ala)-ONa [dose: 12.6 mg/kg (35 μmol/kg)], Bz-Gln-(^13C-Ala)-ONa [dose: 12.0 mg/kg (35 μmol/kg)], Bz-Val-(^13C-Ala)-ONa [dose: 11.0 mg/kg (35 μmol/kg)], Bz-Tyr-(^13C-Ala)-ONa [dose: 13.2 mg/kg (35 μmol/kg)], Bz-Met-(^13C-Ala)-ONa [dose: 12.1 mg/kg (35 μmol/kg)], Bz-Ser-(^13C-Ala)-ONa [dose: 10.6 mg/kg (35 μmol/kg)], Bz-Thr-(^13C-Ala)-ONa [dose: 11.0 mg/kg (35 μmol/kg)] or Boc-Phe-(^13C-Ala)-ONa [dose: 8.84 mg/kg (24.6 μmol/kg)] was administered orally to normal rats and chronic pancreatitis rats. Then, the time course of the degree of increase of the ^13C concentration in exhaled CO2 (Δ^13C(‰)) was measured.

[2] = system: pancreatic exocrine function; assay: 13C-dipeptide breath test in chronic pancreatitis rats (oleic acid injected into pancreatic duct); assay type: in vivo, rat; conditions: mean±SD
Experimental: as §1
Chronic pancreatitis rats were created according to the method of Mundlos et al., Pancreas 1:29 (1986). Oleic acid was injected into the pancreatic duct of 5-week old Wistar male rats. After breeding for 3 weeks, they were used in ^13C-dipeptide breath tests.
as §2

[3] = Table 1, overnight-fasted Wistar rats
[4] = Table 1, overnight-fasted Wistar rats, peak in time course of Δ13C(‰) up to 20 min

SMILES: C[C@H](NC(=O)[C@H](Cc1ccccc1)NC(=O)OC(C)(C)C)[13C](=O)[O-].[Na+] [Na salt of Boc-Phe-(^13C-Ala), t-butyloxycarbonyl-L-phenylalanyl-^13C-L-alanine]
Peak time ([1]; Table 2, rats): 20 min
Δ^13C(‰) peak value ([1]; Table 2, rats): 46.06 ‰
Δ^13C(‰) value at 5 min after the administration ([1]; oral 8.84 mg/kg (24.6 μmol/kg)): 5.02±3.79 ‰
Δ^13C(‰) value at 10 min after the administration ([1]; oral 8.84 mg/kg (24.6 μmol/kg)): 24.36±7.52 ‰
Δ^13C(‰) value at 15 min after the administration ([1]; oral 8.84 mg/kg (24.6 μmol/kg)): 28.13±4.43 ‰
Δ^13C(‰) value at 20 min after the administration ([1]; oral 8.84 mg/kg (24.6 μmol/kg)): 25.09±2.00 ‰
Δ^13C(‰) peak value compared with the peak value of Bz-Ala-(^13C-Ala)-ONa ([1]; rats, oral 35 μmol/kg): higher
Δ^13C(‰) value at 5 min after the administration ([2]; oral 8.84 mg/kg (24.6 μmol/kg)): 0.74±0.54 ‰
Δ^13C(‰) value at 10 min after the administration ([2]; oral 8.84 mg/kg (24.6 μmol/kg)): 3.43±1.46 ‰
Δ^13C(‰) value at 15 min after the administration ([2]; oral 8.84 mg/kg (24.6 μmol/kg)): 6.36±2.67 ‰
Δ^13C(‰) value at 20 min after the administration ([2]; oral 8.84 mg/kg (24.6 μmol/kg)): 10.16±3.95 ‰

SMILES: CC[C@H](C)[C@H](NC(=O)c1ccccc1)C(=O)N[C@@H](C)[13C](=O)[O-].[Na+] [Na salt of Bz-Ile-(^13C-Ala), reference compound]
Δ^13C(‰) peak value [1, 3]: 39.82 ‰
Peak time [1, 4]: 20 min

SMILES: C[C@H](NC(=O)[C@H](CO)NC(=O)c1ccccc1)[13C](=O)[O-].[Na+] [Na salt of Bz-Ser-(^13C-Ala), N-benzoyl-L-seryl-^13C-L-alanine]
Δ^13C(‰) peak value [1, 3]: 47.48 ‰
Peak time [1, 4]: 15 min
Δ^13C(‰) value at 5 min after the administration ([1]; oral 35 μmol/kg): 8.29±4.94 ‰
Δ^13C(‰) value at 10 min after the administration ([1]; oral 35 μmol/kg): 35.91±11.85 ‰
Δ^13C(‰) value at 15 min after the administration ([1]; oral 35 μmol/kg): 47.48±12.89 ‰
Δ^13C(‰) value at 20 min after the administration ([1]; oral 35 μmol/kg): 43.04±5.30 ‰
Δ^13C(‰) peak value compared with the peak value of Bz-Ala-(^13C-Ala)-ONa ([1]; rats, oral 35 μmol/kg): higher
Δ^13C(‰) value at 5 min after the administration ([2]; oral 35 μmol/kg): 1.07±1.43 ‰
Δ^13C(‰) value at 10 min after the administration ([2]; oral 35 μmol/kg): 5.94±8.13 ‰
Δ^13C(‰) value at 15 min after the administration ([2]; oral 35 μmol/kg): 10.34±11.99 ‰
Δ^13C(‰) value at 20 min after the administration ([2]; oral 35 μmol/kg): 12.80±11.97 ‰

SMILES: C[C@H](NC(=O)[C@H](CCCCN)NC(=O)c1ccccc1)[13C](=O)O [Bz-Lys-(^13C-Ala), reference compound]
Δ^13C(‰) peak value [1, 3]: 38.57 ‰
Peak time [1, 4]: 15 min

SMILES: C[C@H](NC(=O)[C@H](CCCNC(=N)N)NC(=O)c1ccccc1)[13C](=O)O [Bz-Arg-(^13C-Ala), reference compound]
Δ^13C(‰) peak value [1, 3]: 42.83 ‰
Peak time [1, 4]: 15 min

SMILES: C[C@H](NC(=O)CNC(=O)c1ccccc1)[13C](=O)[O-].[Na+] [Na salt of Bz-Gly-(^13C-Ala), reference compound]
Δ^13C(‰) peak value [1, 3]: 32.14 ‰
Peak time [1, 4]: 20 min

SMILES: C[C@H](NC(=O)[C@H](Cc1cnc[nH]1)NC(=O)c1ccccc1)[13C](=O)[O-].[Na+] [Na salt of Bz-His-(^13C-Ala), reference compound]
Δ^13C(‰) peak value [1, 3]: 36.17 ‰
Peak time [1, 4]: 20 min

SMILES: CC(C)C[C@H](NC(=O)c1ccccc1)C(=O)N[C@@H](C)[13C](=O)[O-].[Na+] [Na salt of Bz-Leu-(^13C-Ala), reference compound]
Δ^13C(‰) peak value [1, 3]: 42.77 ‰
Peak time [1, 4]: 15 min

SMILES: CSCC[C@H](NC(C)=O)C(=O)N[C@@H](C)[13C](=O)[O-].[Na+] [Na salt of Ac-Met-(^13C-Ala), acetyl-L-methionyl-^13C-L-alanine]
Peak time ([1]; Table 2, rats): 15 min
Δ^13C(‰) peak value ([1]; Table 2, rats): 63.15 ‰
Δ^13C(‰) peak value compared with the peak value of Bz-Ala-(^13C-Ala)-ONa ([1]; rats, oral 35 μmol/kg): higher

SMILES: C[C@H](NC(=O)[C@H](CS)NC(=O)c1ccccc1)[13C](=O)[O-].[Na+] [Na salt of Bz-Cys-(^13C-Ala), reference compound]
Δ^13C(‰) peak value [1, 3]: 31.52 ‰
Peak time [1, 4]: 10 min

Next, values leading:

Δ^13C(‰) peak value [1, 3]: 11.47 ‰
Peak time [1, 4]: 20 min
SMILES: C[C@H](NC(=O)[C@H](CC(=O)O)NC(=O)c1ccccc1)[13C](=O)[O-].[Na+] [Na salt of Bz-Asp-(^13C-Ala), reference compound]

Δ^13C(‰) peak value [1, 3]: 41.74 ‰
Peak time [1, 4]: 15 min
SMILES: C[C@H](NC(=O)[C@H](CC(N)=O)NC(=O)c1ccccc1)[13C](=O)[O-].[Na+] [Na salt of Bz-Asn-(^13C-Ala), reference compound]

Δ^13C(‰) peak value [1, 3]: 48.88 ‰
Peak time [1, 4]: 10 min
Δ^13C(‰) value at 5 min after the administration ([1]; oral 35 μmol/kg): 19.76±10.16 ‰
Δ^13C(‰) value at 10 min after the administration ([1]; oral 35 μmol/kg): 48.88±17.45 ‰
Δ^13C(‰) value at 15 min after the administration ([1]; oral 35 μmol/kg): 45.53±8.00 ‰
Δ^13C(‰) value at 20 min after the administration ([1]; oral 35 μmol/kg): 38.58±3.79 ‰
Δ^13C(‰) peak value compared with the peak value of Bz-Ala-(^13C-Ala)-ONa ([1]; rats, oral 35 μmol/kg): higher
Δ^13C(‰) value at 5 min after the administration ([2]; oral 35 μmol/kg): 1.52±1.47 ‰
Δ^13C(‰) value at 10 min after the administration ([2]; oral 35 μmol/kg): 7.69±5.15 ‰
Δ^13C(‰) value at 15 min after the administration ([2]; oral 35 μmol/kg): 14.59±8.50 ‰
Δ^13C(‰) value at 20 min after the administration ([2]; oral 35 μmol/kg): 20.25±9.43 ‰
SMILES: CSCC[C@H](NC(=O)c1ccccc1)C(=O)N[C@@H](C)[13C](=O)[O-].[Na+] [Na salt of Bz-Met-(^13C-Ala), N-benzoyl-L-methionyl-^13C-L-alanine]

Δ^13C(‰) peak value [1, 3]: 54.56 ‰
Peak time [1, 4]: 10 min
Δ^13C(‰) value at 5 min after the administration ([1]; oral 35 μmol/kg): 13.86±4.98 ‰
Δ^13C(‰) value at 10 min after the administration ([1]; oral 35 μmol/kg): 54.56±14.10 ‰
Δ^13C(‰) value at 15 min after the administration ([1]; oral 35 μmol/kg): 51.27±3.21 ‰
Δ^13C(‰) peak value compared with the peak value of Bz-Ala-(^13C-Ala)-ONa ([1]; rats, oral 35 μmol/kg): higher
Δ^13C(‰) value at 5 min after the administration ([2]; oral 35 μmol/kg): 3.41±3.44 ‰
Δ^13C(‰) value at 10 min after the administration ([2]; oral 35 μmol/kg): 15.32±13.04 ‰
Δ^13C(‰) value at 15 min after the administration ([2]; oral 35 μmol/kg): 28.06±19.01 ‰
SMILES: C[C@H](NC(=O)[C@H](CCC(N)=O)NC(=O)c1ccccc1)[13C](=O)[O-].[Na+] [Na salt of Bz-Gln-(^13C-Ala), N-benzoyl-L-glutaminyl-^13C-L-alanine]

Δ^13C(‰) peak value [1, 3]: 55.62 ‰
Peak time [1, 4]: 10 min
Δ^13C(‰) value at 5 min after the administration ([1]; oral 35 μmol/kg): 29.32±13.57 ‰
Δ^13C(‰) value at 10 min after the administration ([1]; oral 35 μmol/kg): 55.62±6.62 ‰
Δ^13C(‰) value at 15 min after the administration ([1]; oral 35 μmol/kg): 45.44±3.44 ‰
Δ^13C(‰) peak value compared with the peak value of Bz-Ala-(^13C-Ala)-ONa ([1]; rats, oral 35 μmol/kg): higher
Δ^13C(‰) value at 5 min after the administration ([2]; oral 35 μmol/kg): 4.17±3.95 ‰
Δ^13C(‰) value at 10 min after the administration ([2]; oral 35 μmol/kg): 14.56±10.79 ‰
Δ^13C(‰) value at 15 min after the administration ([2]; oral 35 μmol/kg): 22.80±12.36 ‰
SMILES: C[C@H](NC(=O)[C@H](Cc1ccccc1)NC(=O)c1ccccc1)[13C](=O)[O-].[Na+] [Na salt of Bz-Phe-(^13C-Ala), N-benzoyl-L-phenylalanyl-^13C-L-alanine]

Δ^13C(‰) peak value [1, 3]: 45.88 ‰
Peak time [1, 4]: 10 min
Peak time ([1]; Table 2, rats): 10 min
Δ^13C(‰) peak value ([1]; Table 2, rats): 45.88 ‰
SMILES: C[C@H](NC(=O)c1ccccc1)C(=O)N[C@@H](C)[13C](=O)[O-].[Na+] [Na salt of Bz-Ala-(^13C-Ala), reference compound]

Peak time ([1]; Table 2, rats): 15 min
Δ^13C(‰) peak value ([1]; Table 2, rats): 48.71 ‰
Δ^13C(‰) peak value compared with the peak value of Bz-Ala-(^13C-Ala)-ONa ([1]; rats, oral 35 μmol/kg): higher
SMILES: CSCC[C@H](NC(=O)OCc1ccccc1)C(=O)N[C@@H](C)[13C](=O)[O-].[Na+] [Na salt of Z-Met-(^13C-Ala), benzyloxycarbonyl-L-methionyl-^13C-L-alanine]

Peak time ([1]; Table 2, rats): 15 min
Δ^13C(‰) peak value ([1]; Table 2, rats): 55.50 ‰
Δ^13C(‰) peak value compared with the peak value of Bz-Ala-(^13C-Ala)-ONa ([1]; rats, oral 35 μmol/kg): higher
SMILES: CSCC[C@H](NC(=O)OC(C)(C)C)C(=O)N[C@@H](C)[13C](=O)[O-].[Na+] [Na salt of Boc-Met-(^13C-Ala), t-butyloxycarbonyl-L-methionyl-^13C-L-alanine]

Δ^13C(‰) peak value [1, 3]: 39.76 ‰
Peak time [1, 4]: 15 min
SMILES: C[C@H](NC(=O)[C@H](Cc1c[nH]c2ccccc12)NC(=O)c1ccccc1)[13C](=O)[O-].[Na+] [Na salt of Bz-Trp-(^13C-Ala), reference compound]
